The record followed here is patent publication US20260209208A1, “PHENYL-PYRAZOLE CARBOXAMIDE COMPOUNDS” (Acrivon Therapeutics, Inc., priority 2022, published 2026).

The target in the assay is T1, recombinant human PMYT-1 (Myt1 kinase) (Homo sapiens, UniProt Q99640).
T1 construct: full length PMYT-1 was expressed by baculovirus in insect cells using a N-terminal GST tag; purchased Invitrogen A30984; host or cells: insect cells (baculovirus)
T1 sequence (Q99640 1-499): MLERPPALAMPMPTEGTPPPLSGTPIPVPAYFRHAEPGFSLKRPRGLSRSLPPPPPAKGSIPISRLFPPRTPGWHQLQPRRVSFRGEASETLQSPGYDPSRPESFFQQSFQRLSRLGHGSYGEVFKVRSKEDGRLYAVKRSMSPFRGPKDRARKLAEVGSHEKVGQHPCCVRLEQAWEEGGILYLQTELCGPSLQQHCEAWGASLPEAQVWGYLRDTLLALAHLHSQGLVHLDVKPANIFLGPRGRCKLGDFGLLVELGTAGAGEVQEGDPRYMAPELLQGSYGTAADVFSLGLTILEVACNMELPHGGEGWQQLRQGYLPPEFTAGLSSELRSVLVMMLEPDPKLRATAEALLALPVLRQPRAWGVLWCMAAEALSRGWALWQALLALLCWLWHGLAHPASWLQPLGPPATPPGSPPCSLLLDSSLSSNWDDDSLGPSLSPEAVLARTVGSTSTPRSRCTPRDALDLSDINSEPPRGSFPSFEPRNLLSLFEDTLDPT
The experiment in a line: LanthaScreen Europium (Eu) Kinase Binding Assay for Myt1 kinase. The note with it: TR-FRET tracer 178 displacement, GST-tagged full length PMYT-1, 60 min, room temperature; mean IC50; read-out: LANTHA Kinase Binding for PMyt1. The text has this:
We used a LanthaScreen Europium (Eu) Kinase Binding Assay to determine the binding of provided compounds to Myt1 kinase. The assay utilizes an Alexa Fluor 647-labeled ATP competitive kinase tracer that binds to the ATP binding site of a GST-tagged Myt1 kinase, while a europium (Eu) labeled antibody binds to the GST tag. The proximity of fluorescently labeled kinase tracer and europium (Eu) donor fluorophore antibody leads to fluorescence resonance energy transfer (FRET) to the fluorescence label (acceptor) upon excitation of the Eu (donor). Displacement of tracer from the ATP-binding site by a test compound disturbs the proximity between both labels thus lowering the FRET.
This time resolved-FRET binding assay was performed in white 384-well low volume plates (Greiner, cat #784075), at room temperature in kinase buffer A (KBA; Invitrogen cat # PV3189), consisting of 50 mM HEPES-NaOH (pH 7.5), 0.01% Brij-35, 10 mM MgCl2, and 1 mM EGTA. 5 μl of compound (diluted in reaction buffer, to 1% DMSO) were added to various wells in the plate, followed by 5 μl each of recombinant human PMYT-1 (full length PMYT-1 was expressed by baculovirus in insect cells using a N-terminal GST tag (MW: 80.8 kDa) (Invitrogen cat #A30984) and LanthaScreen Eu-anti-GST antibody (Invitrogen, cat #PV5594). After this, 5 μl of kinase tracer 178 (Invitrogen, cat #PV5593) was added to the plate and the plate was incubated for 60 minutes at room temperature. The final assay conditions in each well were: 3 nM tracer 178, 2.5 nM PMYT-1 and 1 nM Eu-labeled antibody in total assay volume of 15 μl. An Envision 2104 (Perkin-Elmer) Plate Reader with the following time-resolve fluorescence setting was used for performing LanthaScreen kinase binding assay. • Excitation 320 nm (30 nm bandpass) • Kinase Tracer Emission 665 nm (10 nm bandpass) • LanthaScreen Eu-anti-Tag Antibody Emission 615 nm (10 nm bandpass) • Dichroic Mirror Instrument dependent • Delay Time 100 μs • Integration Time 200 μs
To calculate the emission ratio, the acceptor/tracer emission ([…]) was divided by the antibody/donor emission ([…]) and the average of duplicate measurement was used for calculations. Data plotting, analysis of binding, and curve fitting was done using Excel add-in XLfit version 5.5.0.5 (IDBS, Guildford, United Kingdom).
For `Cc1ccc(O)c(C)c1-n1nc(-c2cc3ccccc3o2)c(C(N)=O)c1N` (single isomer, unassigned) [Compound 109, 5-amino-3-(benzofuran-2-yl)-1-(3-hydroxy-2,6-dimethylphenyl)-1H-pyrazole-4-carboxamide], the IC50 was greater than 0.25 µM.

For the compound `Cc1ccc(O)cc1-n1nc(-c2cccc(C3CCNCC3)c2)c(C(N)=O)c1N` [Compound 8, 5-amino-1-(5-hydroxy-2-methylphenyl)-3-[3-(piperidin-4-yl)phenyl]-1H-pyrazole-4-carboxamide], the IC50 is greater than 0.25 µM.

As to `Cc1ccccc1-c1nn(-c2c(C)ccc(O)c2C)c(N)c1C(N)=O` [Compound 66], the IC50 was greater than 0.25 µM.

In the case of `Cc1ccc(O)cc1-n1nc(-c2ccc(F)cc2)c(C(N)=O)c1N` [Compound 2, 5-amino-3-(4-fluorophenyl)-1-(5-hydroxy-2-methylphenyl)-1H-pyrazole-4-carboxamide], the IC50 is 0.1 to 0.25 µM.

Take `Cc1ccc(O)c(C)c1-n1nc(-c2ccccc2Cl)c(C(N)=O)c1N` [Compound 62]: the IC50 was greater than 0.25 µM.

As for `COc1ccc(S(=O)(=O)O)cc1-c1nn(-c2c(C)ccc(O)c2C)c(N)c1C(N)=O` [Compound 60], the IC50 was greater than 0.25 µM.

Take `Cc1ccc(O)cc1-n1nc(-c2cccc(-c3ccncc3)c2)c(C(N)=O)c1N` [Compound 7, 5-amino-1-(5-hydroxy-2-methylphenyl)-3-[3-(pyridin-4-yl)phenyl]-1H-pyrazole-4-carboxamide]: the IC50 is greater than 0.25 µM.

As to `Cc1ccc2[nH]nc(C)c2c1-n1nc(-c2ccco2)c(C(N)=O)c1N` (single isomer, unassigned) [Compound 103, 5-amino-1-(3,5-dimethyl-1H-indazol-4-yl)-3-(furan-2-yl)-1H-pyrazole-4-carboxamide], the IC50 lay within 0.01 to 0.1 µM.

For the compound `Cc1cccc(-c2nn(-c3c(C)ccc(O)c3C)c(N)c2C(N)=O)c1` [Compound 63], the IC50 was in the range of 0.01 to 0.1 µM.

Take `Cc1ccc(O)c(C)c1-n1nc(-c2cnn(C)c2)c(C(N)=O)c1N` [Compound 121]: the IC50 is 0.01 to 0.1 µM.

In the case of `Cc1ccc(O)c(C)c1-n1nc(-c2ccccc2F)c(C(N)=O)c1N` [Compound 65], the IC50 was in the range of 0.01 to 0.1 µM.

`Cc1ccc2[nH]nc(C)c2c1-n1nc(-c2ccco2)c(C(N)=O)c1N` (atropisomer, axis not shown) [Compound 116, 5-amino-1-(3,5-dimethyl-1H-indazol-4-yl)-3-(furan-2-yl)-1H-pyrazole-4-carboxamide]: the IC50 was greater than 0.25 µM.

Consider `COc1ccc(-c2nn(-c3cc(O)ccc3C)c(N)c2C(N)=O)cc1` [Compound 3, 5-amino-1-(5-hydroxy-2-methylphenyl)-3-(4-methoxyphenyl)-1H-pyrazole-4-carboxamide], for which the IC50 is greater than 0.25 µM.

On to `Cc1ccc(O)c(C)c1-n1nc(-c2cc(Br)co2)c(C(N)=O)c1N` (single isomer, unassigned) [Compound 110, 5-amino-3-(4-bromofuran-2-yl)-1-(3-hydroxy-2,6-dimethylphenyl)-1H-pyrazole-4-carboxamide], for which the IC50 was 0.1 to 0.25 µM.

As for `COc1ccccc1-c1nn(-c2c(C)ccc(O)c2C)c(N)c1C(N)=O` [Compound 64], the IC50 was greater than 0.25 µM.
